Experiments:
hepatocytes [1] = test: Effectiveness of different K-Ras activating agents in bile canaliculi formation; type: cell-based, human; conditions: normal culture, Day 4; agent added to medium of the instant invention without OsM
Description: (§1) The frozen stock of human primary-cultured hepatocytes (PHHs) was thawed using commercially available thawing medium, and cell number was counted using trypan blue. To a 96-well plate coated with collagen I, PHHs were plated at 1.0×10^5 cells/well seeding density, using the medium of the instant invention, commercial medium A, commercial medium B, and commercial medium C such that the medium volume was 75 μL/well, and cultured at 37° C. under 5% CO2 condition. Four hours, 1 day, 2 days, and 4 days after seeding, the total amount of medium was replaced using each medium such that the medium volume was 75 μL/well, and the plate was cultured until Day 7 of culture.
Two types of media were used as controls: the medium of the instant invention without OsM (a negative control), and the medium of the instant invention (a positive control), and four more types of media were prepared based on the negative control to which a K-Ras activating agent other than OsM (IL-6, LIF, CNTF or Ras-GRF) was added (six types of media in total). Each medium was used for carrying out normal culture, and on culture Day 4 the medium was removed and 4 μmol/L CDFDA solution was added at 100 μL/well. The culture was incubated in a CO2 incubator (5% CO2, 37° C.) for 10 minutes, and observed using fluorescence microscopy.

hepatocytes [2] = test: Effect of each medium component on bile canaliculi formation (component removal); type: cell-based, human; conditions: normal culture, Day 4; named component removed from the medium of the instant invention
Description: as §1
Eight types of media in total: the medium of the instant invention, and media prepared by removing the main six components (HGF, OsM, DEX, Frk, DMSO, S-220) from the medium of the instant invention (in some case, 2 components were removed), were prepared, and each was used for performing normal culture. Phase contrast microscopy was performed on Day 4 of culture. […] Thereafter, the culture was washed three times with HBSS (+), the medium for each condition was added at 75 μL/well, then the culture was incubated in CO2 incubator (5% CO2, 37° C.) for 10 minutes and observed by fluorescence microscopy.

| Substance | level of accumulation of CDFDA relative to OsM (positive control) (hepatocytes [1]) | accumulation of CDFDA in bile canaliculi (fluorescence microscopy image) (hepatocytes [2]) | boundaries between cells (phase contrast microscope image) (hepatocytes [2]) |
| --- | --- | --- | --- |
| IL-6: IL-6 family cytokine, K-Ras activating agent other than OsM | comparable level of accumulation of CDFDA | – | – |
| oncostatin M [OsM] | – | almost no accumulation of CDFDA in the bile canaliculi | boundaries between cells could hardly be observed |

— patent US20250368961A1, “Medium for producing a bile canaliculus and method for producing a bile canaliculus using the same” (INSTITUTE OF SCIENCE TOKYO, priority 2024, published 2025)
